Measurements: US5741664A, “Subtilisin variants capable of cleaving substrates containing dibasic residues” (priority 1995, dated 1998)
Residues, ends and D or L forms follow the SMILES beside them.

Tests used:
[1] = target: T1, Bacillus amyloliquefaciens subtilisin BPN' variant G166D (Bacillus amyloliquefaciens, UniProt P00782, G273D); assay: hydrolysis of p-nitroanilide tetrapeptide substrates, initial rates; assay type: biochemical; conditions: suc-AAPX-pna series; 20 mM Tris-Cl pH 8.2, 4% DMSO, 25 C
T1 construct: made in house; host or cells: Bacillus subtilis BG2036 (secreted, purified from culture supernatant)
T1 sequence (P00782 108-382 G273D): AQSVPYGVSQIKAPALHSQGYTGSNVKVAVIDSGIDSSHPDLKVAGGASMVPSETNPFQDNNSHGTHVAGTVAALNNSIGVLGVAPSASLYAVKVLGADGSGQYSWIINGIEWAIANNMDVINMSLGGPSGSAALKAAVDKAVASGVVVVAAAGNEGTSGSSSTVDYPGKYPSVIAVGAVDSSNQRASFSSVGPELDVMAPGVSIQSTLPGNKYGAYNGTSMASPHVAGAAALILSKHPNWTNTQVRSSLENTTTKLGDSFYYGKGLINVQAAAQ
From the text: To probe the effects of the G166E and G166D on specificity at the P1 position we used substrates having the form suc-AAPX-pna (SEQ ID NO: 69) where X was either Lys (SEQ ID NO: 58), Arg (SEQ ID NO: 59), Phe (SEQ ID NO: 56), Met (SEQ ID NO: 60) or Gln (SEQ ID NO: 61). Whereas the wild-type enzyme preferred Phe>Met>Lys>Arg>Gln, the G166E preferred Lys~Phe>Arg~Met>Gln, and G166D preferred Lys>Phe~Arg~Met>Gln. Thus, both the acidic substitutions at position 166 caused a shift in preference for basic residues as previously reported (Wells, J. A., Powers, D. B., Bott, R. R., Graycar, T. P. and Estell, D. A. (1987a), Proc. Natl. Acad. Sci. USA 84:1219-1223).
(§1) Subtilisins were assayed by measuring the initial rates of hydrolysis of p-nitroanilide tetrapeptide substrates in 0.4 mL 20 mM Tris-Cl pH 8.2, 4 % (v/v) dimethyl sulfoxide at (25±0.2)° C. as described previously (Estell, D. A., Graycar, T. P., Miller, J. V., Powers, D. B., Burnier, J. P., Ng, P. G. and Wells, J. A. [1986] Science 233:659-663). Enzyme concentrations [E]0 were determined spectrophotometrically using E280 nm 0.1%=1.17 (Matsubara, H.; Kasper, C B.; Brown, D. M.; and Smith, E. L. (1965) J. Biol. Chem.,240:1125-1130.), and were typically 5-50 nM in reactions. Initial rates were determined for nine to twelve different substrate concentrations over the range of 0.001-2.0 mM. […]

[2] = target: T2, KEX2 (yeast pro-hormone processing protease) (Saccharomyces cerevisiae, UniProt P13134); conditions: KEX2 cleaving Boc-RVRR-MCA; Brenner and Fuller 1992; cited from earlier work
T2 sequence (P13134 114-613 limits assumed): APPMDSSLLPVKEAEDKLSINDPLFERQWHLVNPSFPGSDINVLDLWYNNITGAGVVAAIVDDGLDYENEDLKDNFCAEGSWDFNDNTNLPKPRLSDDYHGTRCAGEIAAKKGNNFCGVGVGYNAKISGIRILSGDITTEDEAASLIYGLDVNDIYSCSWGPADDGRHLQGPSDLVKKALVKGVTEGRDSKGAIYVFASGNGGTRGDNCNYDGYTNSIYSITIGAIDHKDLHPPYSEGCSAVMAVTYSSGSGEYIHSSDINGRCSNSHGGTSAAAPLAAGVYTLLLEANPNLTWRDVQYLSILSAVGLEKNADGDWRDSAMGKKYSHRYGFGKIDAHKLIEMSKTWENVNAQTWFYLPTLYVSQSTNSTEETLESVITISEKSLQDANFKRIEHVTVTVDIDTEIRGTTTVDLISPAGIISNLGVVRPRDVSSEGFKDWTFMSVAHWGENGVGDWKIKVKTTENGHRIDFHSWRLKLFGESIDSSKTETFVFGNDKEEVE

[3] = target: T3, subtilisin (subtilisin BPN' from Bacillus amyloliquefaciens, wild type) (Bacillus amyloliquefaciens, UniProt P00782); conditions: subtilisin cleaving suc-AAPF-pna; Estell et al. 1986; cited from earlier work
T3 sequence (P00782 108-382): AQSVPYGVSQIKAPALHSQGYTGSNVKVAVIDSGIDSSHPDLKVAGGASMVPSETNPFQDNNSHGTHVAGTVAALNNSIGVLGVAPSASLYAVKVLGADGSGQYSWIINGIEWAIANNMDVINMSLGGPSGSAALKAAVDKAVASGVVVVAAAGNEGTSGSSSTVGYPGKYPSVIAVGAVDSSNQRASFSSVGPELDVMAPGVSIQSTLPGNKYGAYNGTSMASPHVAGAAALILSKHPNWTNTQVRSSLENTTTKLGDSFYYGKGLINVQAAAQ

[4] = target: T4, Bacillus amyloliquefaciens subtilisin BPN' variant N62D/G166E (Bacillus amyloliquefaciens, UniProt P00782, G273E/N169D); assay: hydrolysis of p-nitroanilide tetrapeptide substrates, initial rates; assay type: biochemical; conditions: suc-AAXX-pna series; 20 mM Tris-Cl pH 8.2, 4% DMSO, 25 C
T4 construct: made in house; host or cells: Bacillus subtilis BG2036 (secreted, purified from culture supernatant)
T4 sequence (P00782 108-382 N169D/G273E): as the sequence (P00782 108-382 G273D) above, with N62D, D166E counted along it
Description: (§2) Despite the less than additive effects seen for the two charged substitutions in the S2 site, we decided to combine the best S2 site variant (N62D) with either of the acidic substitutions in the S1 site. The two double mutants, N62D/G166E and N62D/G166D, were analyzed with substrates having the form, suc-AAXX-pna (SEQ ID NO: 71) where XX was either KK (SEQ ID NO: 66), KR (SEQ ID NO: 67), KF (SEQ ID NO: 62), PK (SEQ ID NO: 58), PF (SEQ ID NO: 56) or AF (SEQ ID NO: 63)(FIG. 4). The wild-type preference was AF>PF~KF>KK~PK>KR, whereas the double mutants had the preference KK>KR>KF>PK~AF>PF. […]
as §1

[5] = target: T5, Bacillus amyloliquefaciens subtilisin BPN' variant N62D/G166D (mature enzyme SEQ ID NO: 72) (Bacillus amyloliquefaciens, UniProt P00782, G273D/N169D); assay: as above; assay type: biochemical; conditions: suc-AAXX-pna series; 20 mM Tris-Cl pH 8.2, 4% DMSO, 25 C
T5 construct: made in house; host or cells: Bacillus subtilis BG2036 (secreted, purified from culture supernatant)
T5 sequence (P00782 108-382 N169D/G273D): as the sequence (P00782 108-382 G273D) above, with N62D counted along it
Description: as §2, §1

C[C@H](NC(=O)CCC(=O)O)C(=O)N[C@@H](C)C(=O)N1CCC[C@H]1C(=O)N[C@@H](CCCCN)C(=O)Nc1ccc([N+](=O)[O-])cc1 [Lys P1 substrate] (HELM PEPTIDE1{[O=C(O)CCC(=O)[*:2]].A.A.P.K.[O=[N+]([O-])c1ccc(N[*:1])cc1]}$$$$V2.0)
ratio of catalytic efficiencies (kcat/Km), Lys P1 substrate versus Phe P1 substrate [1]: about 3 times faster

Cc1cc(=O)oc2cc(NC(=O)[C@H](CCCNC(=N)N)NC(=O)[C@H](CCCNC(=N)N)NC(=O)[C@@H](NC(=O)[C@H](CCCNC(=N)N)NC(=O)OC(C)(C)C)C(C)C)ccc12 [Boc-RVRR-MCA, N-t-butoxy carbonyl-arginine-valine-arginine-arginine-7-amido-4-methyl coumarin] (HELM PEPTIDE1{[CC(C)(C)OC(=O)[*:2]].R.V.R.R.[Cc1cc(=O)oc2cc(N[*:1])ccc12]}$$$$V2.0)
kcat/Km [2]: 1e+06 M⁻¹ s⁻¹

C[C@H](NC(=O)CCC(=O)O)C(=O)N[C@@H](C)C(=O)N1CCC[C@H]1C(=O)N[C@@H](Cc1ccccc1)C(=O)Nc1ccc([N+](=O)[O-])cc1 [suc-AAPF-pna, N-succinyl-alanine-alanine-proline-phenylalanyl-p-nitroanalide] (HELM PEPTIDE1{[O=C(O)CCC(=O)[*:2]].A.A.P.F.[O=[N+]([O-])c1ccc(N[*:1])cc1]}$$$$V2.0)
kcat/Km [3]: 300000 M⁻¹ s⁻¹

C[C@H](NC(=O)CCC(=O)O)C(=O)N[C@@H](C)C(=O)N[C@@H](CCCCN)C(=O)N[C@@H](CCCCN)C(=O)Nc1ccc([N+](=O)[O-])cc1 [Lys-Lys substrate] (HELM PEPTIDE1{[O=C(O)CCC(=O)[*:2]].A.A.K.K.[O=[N+]([O-])c1ccc(N[*:1])cc1]}$$$$V2.0)
ratio of catalytic efficiencies (kcat/Km), Lys-Lys substrate versus Lys-Phe substrate [4]: about 8 times faster
ratio of catalytic efficiencies (kcat/Km), Lys-Lys substrate versus Lys-Phe substrate [5]: 18 times faster
